Assays:
[1] = tested on: drug-resistant P. aeruginosa BAA 2109; assay: Antimicrobial susceptibility (broth microdilution), BAA 2109; format: cell-based, Pseudomonas aeruginosa; details: for MIC: Pseudomonas aeruginosa, BAA2109, read-out: antibacterial activity (MIC) BAA 2109; for antibacterial activity in words, BAA 2109: summary of Table 1
Protocol: The following are general steps, unless otherwise noted. All steps were completed using aseptic techniques. All media and glassware were sterilized via an autoclave at 121 °C for 60 min. All agitation occurred at 160 rpm in a temperature-controlled console shaker (Excella E25) at 37 °C. Full-strength tryptic soy broth (TSB) was made by dissolving 30 g of BD Bacto TSB powder in 1 L of deionized water. Purchased and acquired bacterial strains used were E. coli (ATCC 25922), P. aeruginosa (ATCC 9027), drug-resistant P. aeruginosa from ATCC Panel MP-23 (BAA 2108, BAA 2109, BAA 2110), and P. aeruginosa efflux knockout GKCW120 (PΔ6)[6] provided by Zgurskaya and co-workers at the University of Oklahoma.
Susceptibility testing was performed in biological triplicate using the broth microdilution method as outlined by the Clinical and Laboratory Standards Institute. […] Briefly, to each well, 1 μL of compound in DMSO, 89 μL of TSB, and 10 μL of bacterial inoculum, grown from a single colony in 10 mL of TSB for 4–6 h, were added. After incubation for 12–15 h at 37 °C, absorbance at 590 nm was read on a Biotek Synergy HTX Multimode plate reader. Data were processed by background subtracting the media absorbance and then normalizing the data to full bacterial growth with the vehicle only. MIC is defined as the lowest concentration of antibiotic or antibiotic/adjuvant combination that achieves ≥85% growth inhibition, which corresponds to no visible growth.

[2] = tested on: PA electron transport chain; assay: Electron transport activity (NADH-driven H+ pumping, ACMA quenching), PA vesicles; format: biochemical, Pseudomonas aeruginosa; details: for inhibition of PA ETC-driven H+ pumping, in words: 0-64 µg/mL, Figure S2; for Inhibition of the PA electron transport chain IC50: PA vesicles
Protocol: Determination of electron transport activity. In an opaque black 96-well plate, inverted membrane
vesicles from PA or E. coli DK8 pASH20 were added to HMK buffer containing 0.3 µg/mL 9-amino-6-chloro-
2-methoxyacridine (ACMA) and 0-64 µg/mL test compound in DMSO. After measurement of baseline
ACMA fluorescence for 60 s, redox-driven H+ pumping was initiated by addition of NADH to 0.8 mM, and
fluorescence quenching was monitored for 120 s before addition of nigericin to 0.5 µg/mL. Relative
activity is reported as the minimum fluorescence value normalized to the maximum fluorescence value
following addition of nigericin. […]

Row | SMILES | MIC [1] [µg/mL] | antibacterial activity in words, BAA 2109 [1] | inhibition of PA ETC-driven H+ pumping, in words [2] | Inhibition of the PA electron transport chain IC50 [2] [µg/mL]
1 | CSc1nc2ccccc2cc1CNCc1ccc(CN(C)C)cc1 [Compound 4, N,N-Dimethyl-1-(4-((((2-(methylthio)quinolin-3-yl)methyl)amino)methyl)phenyl)methanamine] | 256 | able to inhibit | some inhibition | 29
2 | CN(C)Cc1ccc(CNCc2cc3ccccc3nc2SCc2ccccc2)cc1 [Compound 5, 1-(4-((((2-(Benzylthio)quinolin-3-yl)methyl)amino)methyl)phenyl)-N,N-dimethylmethanamine] | > 128 | inactive | some inhibition | 27

Reference: article PMC10714390, “Quinoline Compounds Targeting the c-Ring of ATP Synthase Inhibit Drug-Resistant Pseudomonas aeruginosa” (ACS Infectious Diseases, 2023)
